Target: T1, JNK1α1 (Homo sapiens, UniProt P45983)
T1 construct: catalytic domain containing amino acids 1-364 and N-terminal hexahistidine tag; hexahistidine (His6) (N); made in house; host or cells: E. coli BL21 (DE3)
Assay: Coupled spectrophotometric (PK/LDH) JNK1α1 assay: % inhibition and Ki determination
Format: biochemical
Settings: for Ki: JNK-1
How it was run: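 Initial rates were taken from the absorbance decrease at 340 nm at 30° C. Ki was fitted with a tight-binding model over 11 concentrations (top 100 μM); single-point inhibition was tested at 1 or 10 μM.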

T1 sequence (P45983 1-364): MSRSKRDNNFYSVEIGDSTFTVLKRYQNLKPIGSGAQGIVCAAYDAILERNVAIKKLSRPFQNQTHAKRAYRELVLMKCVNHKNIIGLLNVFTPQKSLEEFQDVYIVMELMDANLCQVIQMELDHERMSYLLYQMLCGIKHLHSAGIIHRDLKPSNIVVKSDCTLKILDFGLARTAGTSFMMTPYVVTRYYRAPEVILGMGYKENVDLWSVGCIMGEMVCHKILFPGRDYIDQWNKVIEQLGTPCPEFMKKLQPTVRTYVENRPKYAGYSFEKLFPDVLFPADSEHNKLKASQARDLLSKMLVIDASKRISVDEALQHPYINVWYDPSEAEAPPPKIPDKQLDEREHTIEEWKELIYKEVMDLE

SMILES	Ki [nM]	also measured
O=C(N[C@H](CO)Cc1c[nH]cn1)c1ccc2cnc(N[C@H]3CC[C@H](O)CC3)nc2c1 [Example 417, 2-[(trans-4-hydroxycyclohexyl)amino]-N-[(1S)-2-hydroxy-1-(1H-imidazol-4-ylmethyl)ethyl]quinazoline-7-carboxamide]	1680	–
Cc1nnc(CNC(=O)c2cccc3cnc(N[C@H]4CC[C@H](O)CC4)nc23)o1 [Example 514, 2-[(trans-4-hydroxycyclohexyl)amino]-N-[(5-methyl-1,3,4-oxadiazol-2-yl)methyl]quinazoline-8-carboxamide]	–	inhibition at 1 µM (read-out: % Inhibition JNK-1): 11%
CC(C)Nc1ncc2ccc(C(=O)NC(CO)c3ccccc3)cc2n1 (centres unmarked) [Example 385, N-(2-hydroxy-1-phenylethyl)-2-(isopropylamino)quinazoline-7-carboxamide]	263	–
Cc1noc(CNC(=O)c2cccc3cnc(N[C@H]4CC[C@H](O)CC4)nc23)n1 [Example 530, 2-[(trans-4-hydroxycyclohexyl)amino]-N-[(3-methyl-1,2,4-oxadiazol-5-yl)methyl]quinazoline-8-carboxamide]	–	inhibition at 1 µM (read-out: % Inhibition JNK-1): 26%
O=C(NCCCO)c1ccc2cnc(N[C@H]3CC[C@H](O)CC3)nc2c1 [Example 338, 2-[(trans-4-hydroxycyclohexyl)amino]-N-(3-hydroxypropyl)quinazoline-7-carboxamide]	637	–
O[C@H]1CC[C@H](Nc2ncc3ccc(OC4CCC(F)(F)CC4)cc3n2)CC1 [Example 279, trans-4-({7-[(4,4-difluorocyclohexyl)oxy]quinazolin-2-yl}amino)cyclohexanol]	–	inhibition at 1 µM (read-out: % Inhibition JNK-1): 54%
O=C(NC1(CO)CCCC1)c1ccc2cnc(NC3CCCCC3)nc2c1 [Example 401, 2-(cyclohexylamino)-N-[1-(hydroxymethyl)cyclopentyl]quinazoline-7-carboxamide]	490	–
O=C(Cn1cc(-c2ccccn2)nn1)Nc1cc2cc(-c3cn[nH]c3)ccc2cn1 [Example 30, N-[6-(1H-pyrazol-4-yl)isoquinolin-3-yl]-2-(4-pyridin-2-yl-1H-1,2,3-triazol-1-yl)acetamide]	18	–
Cc1cc(OCCN(C)C)ccc1-c1cccc2cnc(N[C@H]3CC[C@H](O)CC3)nc12 [Example 203, trans-4-[(8-{4-[2-(dimethylamino)ethoxy]-2-methylphenyl}quinazolin-2-yl)amino] cyclohexanol]	815	–
O=C(NCC(O)c1ccc(F)c(F)c1)c1cccc2cnc(N[C@H]3CC[C@H](O)CC3)nc12 (stereo partly drawn) [Example 456, N-[2-(3,4-difluorophenyl)-2-hydroxyethyl]-2-[(trans-4-hydroxycyclohexyl)amino]quinazoline-8-carboxamide]	254	–
Cc1ccn2cc(CCNC(=O)c3cccc4cnc(N[C@H]5CC[C@H](O)CC5)nc34)nc2n1 [Example 524, 2-[(trans-4-hydroxycyclohexyl)amino]-N-[2-(7-methylimidazo[1,2-a]pyrimidin-2-yl)ethyl]quinazoline-8-carboxamide]	–	inhibition at 10 µM (@10 uM, read-out: % Inhibition JNK-1): 47%
CC1(COc2ccc3cnc(N[C@H]4CC[C@H](O)CC4)nc3c2)COC1 [Example 281, trans-4-({7-[(3-methyloxetan-3-yl)methoxy]quinazolin-2-yl}amino)cyclohexanol]	–	inhibition at 1 µM (read-out: % Inhibition JNK-1): 72%
COc1ccc2cnc(N[C@H]3CC[C@H](O)CC3)nc2c1 [Example 145, trans-4-[(7-methoxyquinazolin-2-yl)amino]cyclohexanol]	123	–
CCC(=O)N[C@H]1CC[C@H](Nc2ncc3cccc(OC4CCOCC4)c3n2)CC1 [Example 180, N-(trans-4-{[8-(tetrahydro-2H-pyran-4-yloxy)quinazolin-2-yl]amino}cyclohexyl)propanamide]	570	–
O[C@H]1CC[C@H](Nc2ncc3ccc(O[C@@H]4CCOC4)cc3n2)CC1 [Example 159, trans-4-({7-[(3R)-tetrahydrofuran-3-yloxy]quinazolin-2-yl}amino)cyclohexanol]	190	–
CCn1cc(CNC(=O)c2ccc3cnc(N[C@H]4CC[C@H](O)CC4)nc3c2)cn1 [Example 356, N-[(1-ethyl-1H-pyrazol-4-yl)methyl]-2-[(trans-4-hydroxycyclohexyl)amino]quinazoline-7-carboxamide]	1480	–
O=C(CC(c1ccccc1)c1ccccc1)Nc1cc2cc(-c3cn[nH]c3)ccc2cn1 [Example 55, 3,3-diphenyl-N-[6-(1H-pyrazol-4-yl)isoquinolin-3-yl]propanamide]	5	–
CC(C)(CO)NC(=O)c1cccc2cnc(N[C@H]3CC[C@H](O)CC3)nc12 [Example 104, 2-[(trans-4-hydroxycyclohexyl)amino]-N-(2-hydroxy-1,1-dimethylethyl)quinazoline-8-carboxamide]	66	–
O=C(NCCN1CCOCC1)c1cccc2cnc(N[C@H]3CC[C@H](O)CC3)nc12 [Example 116, 2-[(trans-4-hydroxycyclohexyl)amino]-N-(2-morpholin-4-ylethyl)quinazoline-8-carboxamide]	2450	–
CC(O)c1cccc(NC(=O)c2cccc3cnc(N[C@H]4CC[C@H](O)CC4)nc23)n1 (stereo partly drawn) [Example 126, 2-[(trans-4-hydroxycyclohexyl)amino]-N-[6-(1-hydroxyethyl)pyridin-2-yl]quinazoline-8-carboxamide]	382	–
CN(C)CCOc1ccc(-c2cccc3cnc(N[C@H]4CC[C@H](O)CC4)nc23)cc1 [Example 201, trans-4-[(8-{4-[2-(dimethylamino)ethoxy]phenyl}quinazolin-2-yl)amino]cyclohexanol]	70	–
Cc1cc(CNc2cc3cc(-c4cn[nH]c4)ccc3cn2)ccn1 [Example 227, N-[(2-methylpyridin-4-yl)methyl]-6-(1H-pyrazol-4-yl)isoquinolin-3-amine]	6620	–
O=C1CN2C[C@@H](Oc3ccc4cnc(N[C@H]5CC[C@H](O)CC5)nc4c3)CC[C@H]2CN1 [Example 287, (7S,9aS)-7-({2-[(trans-4-hydroxycyclohexyl)amino]quinazolin-7-yl}oxy)hexahydro-2H-pyrido[1,2-a]pyrazin-3(4H)-one]	–	inhibition at 1 µM (read-out: % Inhibition JNK-1): 62%
O[C@H]1CC[C@H](Nc2ncc3cccc(OCC4CCCCO4)c3n2)CC1 (stereo partly drawn) [Example 243, trans-4-{[8-(tetrahydro-2H-pyran-2-ylmethoxy)quinazolin-2-yl]amino}cyclohexanol]	233	–
CC(C)NC(=O)c1ccc2cnc(N[C@H]3CC[C@H](O)CC3)nc2c1 [Example 83, 2-[(trans-4-hydroxycyclohexyl)amino]-N-isopropylquinazoline-7-carboxamide]	247	–
O=C(N[C@H]1CCN(C(=O)c2ccccc2)C1)c1cccc2cnc(N[C@H]3CC[C@H](O)CC3)nc12 [Example 517, N-(1-benzoylpyrrolidin-3-yl)-2-[(trans-4-hydroxycyclohexyl)amino]quinazoline-8-carboxamide]	–	inhibition at 1 µM (read-out: % Inhibition JNK-1): 16%
O=C(NCCc1ccccc1)c1ccc2cnc(N[C@H]3CC[C@H](O)CC3)nc2c1 [Example 82, 2-[(trans-4-hydroxycyclohexyl)amino]-N-(2-phenylethyl)quinazoline-7-carboxamide]	235	–
O=C(CN1Cc2ccccc2C1=O)Nc1cc2cc(-c3cn[nH]c3)ccc2cn1 [Example 25, 2-(1-oxo-1,3-dihydro-2H-isoindol-2-yl)-N-[6-(1H-pyrazol-4-yl)isoquinolin-3-yl]acetamide]	14	–
N[C@H]1CC[C@H](Nc2ncc3cccc(OC4CCOC4)c3n2)CC1 (stereo partly drawn) [Example 177, trans-N-[8-(tetrahydrofuran-3-yloxy)quinazolin-2-yl]cyclohexane-1,4-diamine]	914	–
